Laboratory results taken from ChEMBL document CHEMBL5360655, “Design, Synthesis, and Biological Evaluation of Novel P2X7 Receptor Antagonists for the Treatment of Septic Acute Kidney Injury” (J Med Chem, 2023).
Activity calls are given as the source filed them. The rule behind the calls is not given here.

Tests used:
P2X purinoceptor 7 [1] = target: T1, P2X purinoceptor 7 (Homo sapiens, UniProt Q99572); experiment: Antagonist activity at human P2X7 receptor expressed in HEK293 cells assessed as inhibition of ATP-induced receptor pore formation by propidium iodide dye uptake based fluorescence analysis; type: cell-based
T1 sequence (Q99572 whole entry): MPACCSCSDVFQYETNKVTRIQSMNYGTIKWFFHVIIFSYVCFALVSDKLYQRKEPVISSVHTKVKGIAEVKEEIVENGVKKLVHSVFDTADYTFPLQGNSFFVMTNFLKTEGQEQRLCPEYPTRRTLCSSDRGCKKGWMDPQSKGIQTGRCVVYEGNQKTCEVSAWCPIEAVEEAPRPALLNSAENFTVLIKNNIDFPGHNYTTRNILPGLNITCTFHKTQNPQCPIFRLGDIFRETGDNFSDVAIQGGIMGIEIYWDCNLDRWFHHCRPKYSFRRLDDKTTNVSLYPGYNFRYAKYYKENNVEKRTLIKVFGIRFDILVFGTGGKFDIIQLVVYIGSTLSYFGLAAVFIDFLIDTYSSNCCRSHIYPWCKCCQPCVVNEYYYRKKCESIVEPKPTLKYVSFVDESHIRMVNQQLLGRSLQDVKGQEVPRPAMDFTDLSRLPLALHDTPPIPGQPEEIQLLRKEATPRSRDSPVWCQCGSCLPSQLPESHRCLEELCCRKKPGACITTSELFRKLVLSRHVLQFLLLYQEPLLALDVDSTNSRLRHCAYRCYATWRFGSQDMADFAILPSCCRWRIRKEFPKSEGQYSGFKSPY

[2] = Half life in human liver microsomes; type: ADME, Microsome
[3] = Intrinsic clearance in mouse liver microsomes; type: ADME, Microsome; conditions: read-out: CLH
[4] = Half life in mouse liver microsomes; type: ADME, Microsome
[5] = target: T2, P2X purinoceptor 7 (Homo sapiens) (UniProt Q99572); experiment: Antagonist activity at human P2X7 receptor expressed in HEK293 cells assessed as inhibition of ATP-induced receptor pore formation at 200 nM by propidium iodide dye uptake based fluorescence analysis; type: cell-based; conditions: filed as antagonist
T2 sequence (whole entry): T1 sequence (Q99572 whole entry)

[6] = target: T3, P2X purinoceptor 7 (Mus musculus) (UniProt Q9Z1M0); experiment: Antagonist activity at mouse P2X7 receptor expressed in HEK293 cells assessed as inhibition of ATP-induced receptor pore formation at 1 uM by propidium iodide dye uptake based fluorescence analysis; type: cell-based; conditions: filed as antagonist
T3 sequence (whole entry): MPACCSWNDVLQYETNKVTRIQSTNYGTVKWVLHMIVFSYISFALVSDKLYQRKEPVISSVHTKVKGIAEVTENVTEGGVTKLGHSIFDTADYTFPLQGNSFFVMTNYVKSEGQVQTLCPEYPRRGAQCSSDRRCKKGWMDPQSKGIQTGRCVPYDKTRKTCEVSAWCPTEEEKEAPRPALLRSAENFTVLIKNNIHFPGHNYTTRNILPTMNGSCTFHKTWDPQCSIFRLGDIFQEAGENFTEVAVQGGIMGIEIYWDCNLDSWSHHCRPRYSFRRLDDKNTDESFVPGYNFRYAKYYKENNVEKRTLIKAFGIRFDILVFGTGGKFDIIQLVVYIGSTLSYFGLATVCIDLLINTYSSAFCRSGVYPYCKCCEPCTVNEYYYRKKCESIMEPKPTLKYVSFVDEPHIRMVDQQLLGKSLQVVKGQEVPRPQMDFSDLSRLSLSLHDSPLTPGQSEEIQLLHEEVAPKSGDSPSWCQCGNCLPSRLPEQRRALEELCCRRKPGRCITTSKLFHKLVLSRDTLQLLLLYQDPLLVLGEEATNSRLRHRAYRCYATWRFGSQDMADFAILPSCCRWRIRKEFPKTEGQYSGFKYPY

[7] = target: T3, P2X purinoceptor 7 (Mus musculus); experiment: Antagonist activity at mouse P2X7 receptor expressed in HEK293 cells assessed as inhibition of ATP-induced receptor pore formation at 200 nM by propidium iodide dye uptake based fluorescence analysis; type: cell-based; conditions: filed as antagonist
[8] = Intrinsic clearance in human liver microsomes; type: ADME, Microsome; conditions: read-out: CLH
[9] = target: T2, P2X purinoceptor 7 (Homo sapiens); experiment: Antagonist activity at human P2X7 receptor expressed in HEK293 cells assessed as inhibition of ATP-induced receptor pore formation at 1 uM by propidium iodide dye uptake based fluorescence analysis; type: cell-based; conditions: filed as antagonist
P2X purinoceptor 7 [10] = target: T4, P2X purinoceptor 7 (Mus musculus, UniProt Q9Z1M0); experiment: Antagonist activity at mouse P2X7 receptor expressed in HEK293 cells assessed as inhibition of ATP-induced receptor pore formation by propidium iodide dye uptake based fluorescence analysis; type: cell-based
T4 sequence (Q9Z1M0 whole entry): T3 sequence (whole entry)

[11] = Half life in BALB/c mouse at 10 mg/kg, po measured for 24 hrs by LC-MS/MS analysis; type: ADME, organism-based; conditions: in vivo
[12] = AUC(0 to t) in BALB/c mouse at 10 mg/kg, po measured for 24 hrs by LC-MS/MS analysis; type: ADME, organism-based; design: time 24 hrs, dose 10 mg/kg, route po; conditions: in vivo
[13] = Clearance in BALB/c mouse at 10 mg/kg, iv measured for 24 hrs by LC-MS/MS analysis; type: ADME, organism-based; conditions: in vivo
Mus musculus [14] = experiment: Reno-protective activity against LPS-induced acute kidney injury C57BL/6J mouse model assessed as decrease in BUN level at 10 mg/kg, ip administered twice at 30 mins prior to LPS challenge and 8 hrs post-LPS challenge and measured at 16 hrs post-LPS challenge; type: functional, organism-based; conditions: time 16.5 hrs
[15] = Tmax in BALB/c mouse at 10 mg/kg, po measured for 24 hrs by LC-MS/MS analysis; type: ADME, organism-based; conditions: in vivo
[16] = Oral bioavailability in BALB/c mouse at 10 mg/kg measured for 24 hrs by LC-MS/MS analysis; type: ADME, organism-based; conditions: in vivo
[17] = Tmax in BALB/c mouse at 10 mg/kg, iv measured for 24 hrs by LC-MS/MS analysis; type: ADME, organism-based; conditions: in vivo
P2X purinoceptor 7 [18] = target: T1, P2X purinoceptor 7; experiment: Antagonist activity at P2X7 receptor in human THP-1 cells assessed as inhibition of ATP-induced IL-1beta secretion pretreated with LPS for 3 hrs followed by incubation with compound for 40 mins followed by treatment with ATP for 1 hr by ELISA; type: cell-based
[19] = target: T3, P2X purinoceptor 7 (Mus musculus); experiment: Antagonist activity at mouse P2X7 receptor expressed in HEK293 cells assessed as inhibition of ATP-induced receptor pore formation at 10 uM by propidium iodide dye uptake based fluorescence analysis; type: cell-based; conditions: filed as antagonist
[20] = Clearance in BALB/c mouse at 10 mg/kg, po measured for 24 hrs by LC-MS/MS analysis; type: ADME, organism-based; conditions: in vivo
[21] = Half life in BALB/c mouse at 10 mg/kg, iv measured for 24 hrs by LC-MS/MS analysis; type: ADME, organism-based; conditions: in vivo
[22] = target: T2, P2X purinoceptor 7 (Homo sapiens); experiment: Antagonist activity at human P2X7 receptor expressed in HEK293 cells assessed as inhibition of ATP-induced receptor pore formation at 10 uM by propidium iodide dye uptake based fluorescence analysis; type: cell-based; conditions: filed as antagonist
Mus musculus [23] = experiment: Reno-protective activity against LPS-induced acute kidney injury C57BL/6J mouse model assessed as decrease in serum […] level at 10 mg/kg, ip administered twice at 30 mins prior to LPS challenge and 8 hrs post-LPS challenge and measured at 16 hrs post-LPS challenge; type: functional, organism-based; conditions: time 16.5 hrs
[24] = Cmax in BALB/c mouse at 10 mg/kg, iv measured for 24 hrs by LC-MS/MS analysis; type: ADME, organism-based; design: time 24 hrs, dose 10 mg/kg, route iv; conditions: in vivo
[25] = Cmax in BALB/c mouse at 10 mg/kg, po measured for 24 hrs by LC-MS/MS analysis; type: ADME, organism-based; design: time 24 hrs, dose 10 mg/kg, route po; conditions: in vivo
[26] = AUC(0 to t) in BALB/c mouse at 10 mg/kg, iv measured for 24 hrs by LC-MS/MS analysis; type: ADME, organism-based; design: time 24 hrs, dose 10 mg/kg, route iv; conditions: in vivo

| IC50 (P2X purinoceptor 7 [1]) | half-life [2] | CLint scaled [3] | half-life [4] | inhibition [5] | inhibition [6] | inhibition [7] | CLint scaled [8] | inhibition [9] | IC50 (P2X purinoceptor 7 [10]) | Structure (SMILES) | further results |
| --- | --- | --- | --- | --- | --- | --- | --- | --- | --- | --- | --- |
| 99.6 nM | 114 min | 154 mL/min/kg | 35.4 min | 55.2% | 78.2% | 54.3% | 15.3 mL/min/kg | 86.1% | 104 nM | O=C(NCc1cn(-c2cc(Cl)ccn2)nn1)c1cnc(-c2ccc(NS(=O)(=O)N3CCOCC3)cc2)s1 |  |
| 656 nM | > 120 min | < 12 mL/min/kg | > 120 min | 40% | 83.9% | 68.3% | < 12 mL/min/kg | 62.5% | 69.9 nM | O=C(NCc1cn(-c2cc(Cl)ccn2)nn1)c1cnc(-c2cccc(NS(=O)(=O)C3CC3)c2)s1 |  |
|  | 42.5 min | 88.2 mL/min/kg | 61.9 min | 93.8% | 92% | 87.3% | 40.9 mL/min/kg | 95.2% |  | O=C(NCC1(N2CCN(c3ccccc3)CC2)CCOCC1)c1cccnc1Sc1ccccc1 | half-life [11]: 48 min; AUC(0-t) at 24 h [12]: 155 ng·h/mL; clearance [13]: 538 mL/min/kg; Activity (Mus musculus [14]): Active; Tmax [15]: 4.8 min; bioavailability [16]: 49.9%; Tmax [17]: 4.8 min; IC50 (P2X purinoceptor 7 [18]): < 30 nM; inhibition [19]: 89%; CL/F [20]: 1080 mL/min/kg; half-life [21]: 46.2 min; inhibition [22]: 92%; Activity (Mus musculus [23]): Active; Cmax [24]: 516 ng/mL; Cmax [25]: 270 ng/mL; AUC(0-t) at 24 h [26]: 310 ng·h/mL |
